From paper PMC5053573, “Structure-Based Design of Tetrahydroisoquinoline-7-carboxamides as Selective Discoidin Domain Receptor 1 (DDR1) Inhibitors” (Journal of Medicinal Chemistry, 2016)

Assays:
Assay in all cases: biochemical
Details in all cases: read-out: %Ctrl @ 1000nM
MAP3K15 = MAP3K15 (Homo sapiens, UniProt Q6ZN16)
PKN2 = PKN2 (Homo sapiens, UniProt Q16513)
AKT2 = AKT2 (Homo sapiens, UniProt P31751)
PLK1 = PLK1 (Homo sapiens, UniProt P53350)
KIT-autoinhibited = KIT-autoinhibited (Homo sapiens, UniProt P10721)
TRKA = biological target: T1, TRKA (Homo sapiens, UniProt P04629)
T1 construct: gene NTRK1

GRK4 = GRK4 (Homo sapiens, UniProt P32298)
MST1 = biological target: T2, MST1 (Homo sapiens, UniProt Q13043)
T2 construct: gene STK4

MUSK = MUSK (Homo sapiens, UniProt O15146)
FLT3(ITD,D835V) = FLT3(ITD,D835V) (Homo sapiens, UniProt P36888, D835V/ITD)
CSNK1G2 = CSNK1G2 (Homo sapiens, UniProt P78368)
[1] = biological target: RPS6KA5(Kin.Dom.1-N-terminal) (Homo sapiens, UniProt O75582)
PHKG2 = PHKG2 (Homo sapiens, UniProt P15735)
TBK1 = TBK1 (Homo sapiens, UniProt Q9UHD2)
LRRK2(G2019S) = LRRK2(G2019S) (Homo sapiens, UniProt Q5S007, G2019S)
p38-alpha = biological target: T3, p38-alpha (Homo sapiens, UniProt Q16539)
T3 construct: gene MAPK14

IRAK1 = IRAK1 (Homo sapiens, UniProt P51617)
KIT(D816V) = KIT(D816V) (Homo sapiens, UniProt P10721, D816V)
[2] = biological target: JAK2(JH1domain-catalytic) (Homo sapiens, UniProt O60674)
CDKL5 = CDKL5 (Homo sapiens, UniProt O76039)
FLT3(D835H) = FLT3(D835H) (Homo sapiens, UniProt P36888, D835H)
CTK = biological target: T4, CTK (Homo sapiens, UniProt P42679)
T4 construct: gene MATK

[3] = biological target: RPS6KA4(Kin.Dom.1-N-terminal) (Homo sapiens, UniProt O75676)
FYN = FYN (Homo sapiens, UniProt P06241)
[4] = biological target: ABL1(F317L)-phosphorylated (Homo sapiens, UniProt P00519, F317L)
CSNK1E = CSNK1E (Homo sapiens, UniProt P49674)
GRK7 = GRK7 (Homo sapiens, UniProt Q8WTQ7)
CDK4 = CDK4 (Homo sapiens, UniProt P11802)
MET(Y1235D) = MET(Y1235D) (Homo sapiens, UniProt P08581, Y1235D)
NEK10 = NEK10 (Homo sapiens, UniProt Q6ZWH5)
MAP3K4 = MAP3K4 (Homo sapiens, UniProt Q9Y6R4)
NEK5 = NEK5 (Homo sapiens, UniProt Q6P3R8)
SNARK = biological target: T5, SNARK (Homo sapiens, UniProt Q9H093)
T5 construct: gene NUAK2

CDK7 = CDK7 (Homo sapiens, UniProt P50613)
FLT3 = FLT3 (Homo sapiens, UniProt P36888)

T3 sequence (Q16539 whole entry): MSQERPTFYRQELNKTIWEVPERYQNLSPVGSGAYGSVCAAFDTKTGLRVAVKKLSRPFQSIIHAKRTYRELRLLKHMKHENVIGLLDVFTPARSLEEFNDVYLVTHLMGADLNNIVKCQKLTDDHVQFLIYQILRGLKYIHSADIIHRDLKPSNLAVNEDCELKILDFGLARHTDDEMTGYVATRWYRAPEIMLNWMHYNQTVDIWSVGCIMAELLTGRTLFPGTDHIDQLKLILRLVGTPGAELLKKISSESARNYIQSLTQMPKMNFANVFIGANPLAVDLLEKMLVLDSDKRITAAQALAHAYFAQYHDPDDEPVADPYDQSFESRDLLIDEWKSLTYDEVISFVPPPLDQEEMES
CDK4, sequence (P11802 whole entry): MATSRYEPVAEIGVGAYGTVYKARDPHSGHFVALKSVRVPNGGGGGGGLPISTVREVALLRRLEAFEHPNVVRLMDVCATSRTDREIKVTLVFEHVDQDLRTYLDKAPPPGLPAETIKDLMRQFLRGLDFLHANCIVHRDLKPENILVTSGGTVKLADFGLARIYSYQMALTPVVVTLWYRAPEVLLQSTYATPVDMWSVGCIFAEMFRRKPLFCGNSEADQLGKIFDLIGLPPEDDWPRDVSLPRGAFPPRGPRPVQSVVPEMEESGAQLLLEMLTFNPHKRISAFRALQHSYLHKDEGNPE
T2 sequence (Q13043 whole entry): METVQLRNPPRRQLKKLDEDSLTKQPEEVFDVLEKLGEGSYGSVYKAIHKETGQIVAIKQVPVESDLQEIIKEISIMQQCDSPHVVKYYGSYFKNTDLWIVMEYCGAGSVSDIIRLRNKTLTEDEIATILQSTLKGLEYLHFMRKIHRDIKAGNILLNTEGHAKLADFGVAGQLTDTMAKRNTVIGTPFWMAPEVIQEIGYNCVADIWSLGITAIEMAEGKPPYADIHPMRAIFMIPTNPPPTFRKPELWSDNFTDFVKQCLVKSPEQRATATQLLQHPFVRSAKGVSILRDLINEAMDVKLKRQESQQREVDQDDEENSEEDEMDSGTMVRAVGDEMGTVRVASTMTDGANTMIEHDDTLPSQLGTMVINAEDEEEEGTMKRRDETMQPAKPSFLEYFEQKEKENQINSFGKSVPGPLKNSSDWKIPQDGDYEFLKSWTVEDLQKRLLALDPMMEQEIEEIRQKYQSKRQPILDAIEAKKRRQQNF
AKT2, sequence (P31751 whole entry): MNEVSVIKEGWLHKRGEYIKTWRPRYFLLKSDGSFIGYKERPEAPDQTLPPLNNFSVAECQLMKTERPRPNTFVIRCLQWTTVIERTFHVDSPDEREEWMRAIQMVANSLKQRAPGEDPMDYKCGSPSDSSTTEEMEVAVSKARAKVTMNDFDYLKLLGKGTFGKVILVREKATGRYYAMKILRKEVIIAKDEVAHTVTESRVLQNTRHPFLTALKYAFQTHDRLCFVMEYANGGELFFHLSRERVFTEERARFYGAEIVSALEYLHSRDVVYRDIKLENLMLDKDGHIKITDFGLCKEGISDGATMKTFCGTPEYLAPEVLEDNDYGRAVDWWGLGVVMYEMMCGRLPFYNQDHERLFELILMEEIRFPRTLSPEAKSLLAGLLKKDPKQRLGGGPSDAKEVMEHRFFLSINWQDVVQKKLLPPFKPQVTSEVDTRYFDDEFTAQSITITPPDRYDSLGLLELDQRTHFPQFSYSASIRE
TBK1, sequence (Q9UHD2 whole entry): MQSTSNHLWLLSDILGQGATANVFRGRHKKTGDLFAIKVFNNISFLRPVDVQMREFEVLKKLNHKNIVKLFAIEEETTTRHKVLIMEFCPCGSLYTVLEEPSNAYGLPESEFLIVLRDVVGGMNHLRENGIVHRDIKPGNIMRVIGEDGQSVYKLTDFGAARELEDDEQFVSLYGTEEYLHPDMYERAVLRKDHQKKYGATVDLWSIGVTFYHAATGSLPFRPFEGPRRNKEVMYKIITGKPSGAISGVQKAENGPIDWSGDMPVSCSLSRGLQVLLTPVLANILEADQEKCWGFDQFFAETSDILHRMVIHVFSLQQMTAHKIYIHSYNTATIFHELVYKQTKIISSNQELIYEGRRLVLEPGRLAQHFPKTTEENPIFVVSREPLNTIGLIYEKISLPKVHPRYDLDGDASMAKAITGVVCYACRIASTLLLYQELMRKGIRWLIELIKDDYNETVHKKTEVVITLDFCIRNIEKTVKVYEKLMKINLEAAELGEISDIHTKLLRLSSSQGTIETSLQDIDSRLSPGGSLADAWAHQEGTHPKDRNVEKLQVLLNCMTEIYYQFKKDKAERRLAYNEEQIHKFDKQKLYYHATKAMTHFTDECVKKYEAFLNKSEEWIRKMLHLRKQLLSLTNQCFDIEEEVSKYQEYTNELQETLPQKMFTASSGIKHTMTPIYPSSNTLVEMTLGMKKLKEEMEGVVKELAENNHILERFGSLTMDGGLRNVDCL
T4 sequence (P42679 whole entry): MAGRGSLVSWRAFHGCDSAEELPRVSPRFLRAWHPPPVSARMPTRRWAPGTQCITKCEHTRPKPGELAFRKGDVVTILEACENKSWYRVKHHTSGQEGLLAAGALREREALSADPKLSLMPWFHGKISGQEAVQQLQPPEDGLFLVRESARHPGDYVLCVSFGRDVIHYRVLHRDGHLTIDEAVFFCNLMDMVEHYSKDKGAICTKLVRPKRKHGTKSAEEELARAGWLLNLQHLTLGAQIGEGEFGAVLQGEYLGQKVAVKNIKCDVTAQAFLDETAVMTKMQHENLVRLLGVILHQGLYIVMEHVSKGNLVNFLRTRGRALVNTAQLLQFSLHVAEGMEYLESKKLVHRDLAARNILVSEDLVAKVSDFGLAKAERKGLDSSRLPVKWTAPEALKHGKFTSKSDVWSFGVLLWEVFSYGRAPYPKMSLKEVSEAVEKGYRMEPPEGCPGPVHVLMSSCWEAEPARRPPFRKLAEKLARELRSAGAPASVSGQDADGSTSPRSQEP
MAP3K15, sequence (Q6ZN16 whole entry): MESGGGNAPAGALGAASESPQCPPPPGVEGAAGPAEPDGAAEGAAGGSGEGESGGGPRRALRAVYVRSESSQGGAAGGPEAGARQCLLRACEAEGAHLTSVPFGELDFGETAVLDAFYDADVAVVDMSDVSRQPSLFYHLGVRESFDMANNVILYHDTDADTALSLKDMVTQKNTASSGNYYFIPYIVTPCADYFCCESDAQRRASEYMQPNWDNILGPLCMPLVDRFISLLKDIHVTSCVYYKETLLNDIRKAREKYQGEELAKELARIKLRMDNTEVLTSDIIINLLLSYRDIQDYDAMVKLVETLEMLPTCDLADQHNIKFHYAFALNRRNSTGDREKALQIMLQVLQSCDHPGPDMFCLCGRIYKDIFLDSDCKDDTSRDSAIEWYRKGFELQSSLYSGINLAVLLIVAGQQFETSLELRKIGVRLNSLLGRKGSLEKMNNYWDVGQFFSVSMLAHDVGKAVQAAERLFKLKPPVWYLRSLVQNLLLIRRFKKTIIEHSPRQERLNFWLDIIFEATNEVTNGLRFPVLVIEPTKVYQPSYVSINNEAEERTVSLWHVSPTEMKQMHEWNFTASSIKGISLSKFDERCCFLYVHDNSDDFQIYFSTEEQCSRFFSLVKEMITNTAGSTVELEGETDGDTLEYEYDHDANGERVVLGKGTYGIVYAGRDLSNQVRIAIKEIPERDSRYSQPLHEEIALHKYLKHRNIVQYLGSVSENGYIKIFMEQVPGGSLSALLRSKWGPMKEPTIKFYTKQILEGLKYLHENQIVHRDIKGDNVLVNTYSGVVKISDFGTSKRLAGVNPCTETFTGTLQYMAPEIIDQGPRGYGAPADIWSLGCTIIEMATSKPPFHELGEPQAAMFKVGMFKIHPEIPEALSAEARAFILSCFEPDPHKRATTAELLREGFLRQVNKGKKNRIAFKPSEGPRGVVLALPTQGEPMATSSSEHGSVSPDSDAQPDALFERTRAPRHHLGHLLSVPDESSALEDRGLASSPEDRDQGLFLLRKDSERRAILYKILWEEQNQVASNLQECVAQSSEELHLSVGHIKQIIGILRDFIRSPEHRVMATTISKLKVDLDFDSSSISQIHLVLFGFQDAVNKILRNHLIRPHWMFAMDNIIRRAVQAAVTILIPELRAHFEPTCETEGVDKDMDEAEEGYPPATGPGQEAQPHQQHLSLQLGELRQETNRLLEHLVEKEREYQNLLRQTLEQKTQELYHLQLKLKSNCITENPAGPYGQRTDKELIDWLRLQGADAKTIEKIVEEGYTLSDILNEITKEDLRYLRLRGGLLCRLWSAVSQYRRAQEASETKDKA
PHKG2, sequence (P15735 whole entry): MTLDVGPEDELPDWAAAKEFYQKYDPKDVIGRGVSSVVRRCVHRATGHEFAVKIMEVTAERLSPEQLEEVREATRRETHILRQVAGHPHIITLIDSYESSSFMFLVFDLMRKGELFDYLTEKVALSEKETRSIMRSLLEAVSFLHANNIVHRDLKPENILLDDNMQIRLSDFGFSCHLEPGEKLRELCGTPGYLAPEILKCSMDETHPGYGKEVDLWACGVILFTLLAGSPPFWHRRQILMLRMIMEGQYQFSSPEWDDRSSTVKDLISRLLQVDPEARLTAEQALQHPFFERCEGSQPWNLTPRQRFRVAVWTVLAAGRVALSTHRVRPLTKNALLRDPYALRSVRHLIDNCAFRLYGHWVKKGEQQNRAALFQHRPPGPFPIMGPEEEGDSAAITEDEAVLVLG
CDK7, sequence (P50613 whole entry): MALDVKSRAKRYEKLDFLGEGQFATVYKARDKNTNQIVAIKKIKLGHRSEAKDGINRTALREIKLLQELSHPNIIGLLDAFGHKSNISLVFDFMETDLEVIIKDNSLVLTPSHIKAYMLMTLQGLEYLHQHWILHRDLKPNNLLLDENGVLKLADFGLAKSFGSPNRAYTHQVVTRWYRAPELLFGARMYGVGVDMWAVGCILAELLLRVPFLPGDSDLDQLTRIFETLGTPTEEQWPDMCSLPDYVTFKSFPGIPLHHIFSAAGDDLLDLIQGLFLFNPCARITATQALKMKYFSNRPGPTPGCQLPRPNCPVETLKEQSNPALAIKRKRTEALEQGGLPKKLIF

remaining activity at 1 µM (MAP3K15): 100%
remaining activity at 1 µM (PKN2): 95%
remaining activity at 1 µM (AKT2): 100%
remaining activity at 1 µM (PLK1): 97%
remaining activity at 1 µM (KIT-autoinhibited): 100%
remaining activity at 1 µM (TRKA): 3.2%
remaining activity at 1 µM (GRK4): 100%
remaining activity at 1 µM (MST1): 85%
remaining activity at 1 µM (MUSK): 31%
remaining activity at 1 µM (FLT3(ITD,D835V)): 23%
remaining activity at 1 µM (CSNK1G2): 92%
remaining activity at 1 µM [1]: 97%
remaining activity at 1 µM (PHKG2): 79%
remaining activity at 1 µM (TBK1): 95%
remaining activity at 1 µM (LRRK2(G2019S)): 100%
remaining activity at 1 µM (p38-alpha): 62%
remaining activity at 1 µM (IRAK1): 100%
remaining activity at 1 µM (KIT(D816V)): 77%
remaining activity at 1 µM [2]: 100%
remaining activity at 1 µM (CDKL5): 100%
remaining activity at 1 µM (FLT3(D835H)): 59%
remaining activity at 1 µM (CTK): 100%
remaining activity at 1 µM [3]: 87%
remaining activity at 1 µM (FYN): 69%
remaining activity at 1 µM [4]: 74%
remaining activity at 1 µM (CSNK1E): 86%
remaining activity at 1 µM (GRK7): 94%
remaining activity at 1 µM (CDK4): 98%
remaining activity at 1 µM (MET(Y1235D)): 68%
remaining activity at 1 µM (NEK10): 100%
remaining activity at 1 µM (MAP3K4): 56%
remaining activity at 1 µM (NEK5): 95%
remaining activity at 1 µM (SNARK): 100%
remaining activity at 1 µM (CDK7): 80%
remaining activity at 1 µM (FLT3): 56%
Structure (SMILES): Cc1cn(-c2cc(NC(=O)c3ccc4c(c3)CN(c3cncnc3)C[C@@H]4C)cc(C(F)(F)F)c2)cn1 [Compound 6j]
